Source: patent US11779559B2, “Compositions for treating fungal and bacterial biofilms and methods of using the same” (priority 2017, dated 2023)
Where two headings read alike, the source gives them in different places.

Columns and labels:
[1] = tested on: fungal and bacterial biofilms; assay: Biofilm assays (sustained inhibition and disruption), fungal and bacterial biofilms; format: cell-based; conditions: for Effect on bacterial or fungal biofilms in both assays: sustained inhibition and disruption; for Effect on biofilms: single component on its own
Method: (§1) Two types of biofilm assays were performed: a sustained inhibition assay and a disruption assay. The sustained inhibition assay assesses the compound's ability to prevent biofilm development throughout all stages of biofilm formation, while the disruption assay assesses the compound's ability to break up an existing mature biofilm. These assays are described in detail in the following article: Lohse, M. B., Gulati, M., Valle Arevalo, A., Fishburn, A., Johnson, A. D., and Nobile, C. J. (2017) Assessment and optimizations of Candida albicans in vitro biofilm assays. Antimicrobial Agents and Chemotherapy 61: e02749-16.
(§2) For fungal biofilm assays, all solutions were prepared in RPMI 1640 medium. All bacterial biofilm solutions were prepared in Trypic Soy Broth (TSB), supplemented with 1% glucose (henceforth referred to as TSB-G). All subsequent procedures were performed in a manner that maintained sterility. A solution of each amino acid to be tested was prepared in weight to volume concentrations ranging from 0.1-5.0%. Amino acids were also tested in combinations. Compound solutions were homogenized with gentle agitation in the dark (4° C., 24 hours) before use.
(§3) All biofilm assays were performed using 384-well non-tissue culture treated polystyrene plates. The fungal species tested are as follows: Candida albicans, Candida guilhermondii, Candida parapsilosis, Candida glabrata, Candida tropicalis, Candida dubliniensis, and Candida auris. The bacterial species tested are as follows: Staphylococcus aureus (standard wild type and methicillin-resistant strain USA300), Escherichia coli, Pseudomonas aeruginosa and Staphylococcus epidermidis.
(§4) Fungal strains were streaked on Yeast Peptone Dextrose (YPD) agar plates and incubated at 30° C. for 48 hours. A single colony from each strain to be tested was inoculated into YPD broth and grown for 12 hours, at 30° C., shaking at 225 rpm. For the fungal biofilm inhibition assay, 1 μl of saturated overnight cell culture was added to either 80 μL of RPMI-1640 or RPMI-1640 supplemented with the amino acid compound solution to be tested, in a 384-well plate. The cells were allowed to adhere to the plate for 90 minutes at 37° C. with shaking (350 rpm). Loosely bound cells were washed once with phosphate buffered saline (PBS) and 80 ul of RPMI-1640, or RPMI-1640 supplemented with the amino acid compound solution was added to the plate. The plate was further incubated for 24 hours at 37° C. with shaking (350 rpm). Media was carefully aspirated and the biofilm was measured by optical density at 600 nm. Twelve replicates were performed for each tested condition and the reported values are normalized to the control (RPMI-1640 media only). For the fungal biofilm disruption assays, 80 μL of RPMI-1640 was added to the plate, along with 1 μL of overnight cell culture. The cells were allowed to adhere to the plate for 90 minutes at 37° C. with shaking (350 rpm). Loosely bound cells were washed once with PBS and 80 μL of RPMI-1640 was added to the plate. The plate was further incubated for 24 hours at 37° C. with shaking (350 rpm). Media was carefully aspirated from the mature biofilm and 80 μL of RPMI-1640, or RPMI-1640 supplemented with the amino acid compound solution to be tested, was gently added to the plate. The plate was further incubated for 24 hours at 37° C. with shaking (350 rpm). Media was carefully aspirated and the biofilm was measured by optical density at 600 nm. Twelve replicates were performed for each tested condition and the reported values are normalized to the control (RPMI-1640 media only).
Bacterial strains were streaked on Blood Agar plates (5% sheep blood in Tryptic Soy Agar) and incubated at 37° C. for 24 hours. A single colony from each strain to be tested was inoculated in a TSB broth and grown for 12 hours, at 37° C. with shaking (225 rpm).

fungal biofilms = assay: Biofilm assays (sustained inhibition and/or disruption), fungal biofilms; format: cell-based; conditions: in at least one of the two biofilm assays; for Anti-biofilm effect against fungal biofilms (reduction): administered individually
Method: as §1, §2, §3, §4

C. albicans [2] = assay: Sustained inhibition biofilm assay, fungal; format: cell-based, Candida albicans
Method: as §1, with “J. (2017) Assessment and optimizations of Candida albicans in vitro biofilm assays.” left out
as §2, with “All” for “For fungal biofilm assays, all solutions were prepared in RPMI 1640 medium. All”
(§5) Fungal strains were streaked on Yeast Peptone Dextrose (YPD) agar plates and incubated at 30° C. for 48 hours. A single colony from each strain to be tested was inoculated into YPD broth and grown for 12 hours, at 30° C., shaking at 225 rpm. […] The cells were allowed to adhere to the plate for 90 minutes at 37° C. with shaking (350 rpm). […] The plate was further incubated for 24 hours at 37° C. with shaking (350 rpm). Media was carefully aspirated and the biofilm was measured by optical density at 600 nm. […] The cells were allowed to adhere to the plate for 90 minutes at 37° C. with shaking (350 rpm). […] The plate was further incubated for 24 hours at 37° C. with shaking (350 rpm). […] The plate was further incubated for 24 hours at 37° C. with shaking (350 rpm). Media was carefully aspirated and the biofilm was measured by optical density at 600 nm.

S. aureus [3] = assay: Disruption biofilm assay, bacterial; format: cell-based, Staphylococcus aureus; conditions: Staphylococcus aureus; for inhibition at 1 %: 24 h, read-out: Reduce B Biofilm
Method: as §1, with “J. (2017) Assessment and optimizations of Candida albicans in vitro biofilm assays.” left out
as §2, with “All” for “For fungal biofilm assays, all solutions were prepared in RPMI 1640 medium. All”
(§6) Bacterial strains were streaked on Blood Agar plates (5% sheep blood in Tryptic Soy Agar) and incubated at 37° C. for 24 hours. A single colony from each strain to be tested was inoculated in a TSB broth and grown for 12 hours, at 37° C. with shaking (225 rpm). For the bacterial biofilm inhibition assays, 1 μL of saturated overnight cell culture was added to either 80 μL of TSB-G, or TSB-G supplemented with the amino acid compound solution to be tested, in a 384-well plate. The cells were allowed to adhere to the plate for 60 minutes at 37° C. without shaking. The media was carefully aspirated and 80 μL of TSB-G, or TSB-G supplemented with the amino acid compound solution was added to the plate. The plate was further incubated for 24 hours at 37° C. without shaking. Media was carefully aspirated and the biofilm was measured by optical density at 600 nm. Eight or twelve replicates were performed for each tested condition and the reported values are normalized to the control (TSB-G media only). For the bacterial biofilm disruption assays, 80 μL of TSB-G was added to the plate, along with 1 μL of overnight cell culture. The cells were allowed to adhere to the plate for 60 minutes at 37° C. with no shaking. The media was carefully aspirated and 80 μL of TSB-G was added to the plate. The plate was further incubated for 24 hours at 37° C. with no shaking. Media was carefully aspirated from the mature biofilm and 80 μL of TSB-G, or TSB-G supplemented with the amino acid to be tested, was gently added to the plate. The plate was further incubated for 24 hours at 37° C. without shaking. Media was aspirated and the biofilm was measured by optical density at 600 nm. Twelve replicates were performed for each tested condition and the reported values are normalized to the control (TSB-G media only).

C. albicans [4] = assay: Disruption biofilm assay, fungal; format: cell-based, Candida albicans
Method: as §1, with “J. (2017) Assessment and optimizations of Candida albicans in vitro biofilm assays.” left out
as §2, with “All” for “For fungal biofilm assays, all solutions were prepared in RPMI 1640 medium. All”
as §5

[5] = tested on: bacteria (S. aureus) biofilm and fungal (C. albicans) biofilm; assay: Disruption biofilm assay, bacterial and fungal taken together; format: cell-based
Method: as §1, §2
(§7) Fungal strains were streaked on Yeast Peptone Dextrose (YPD) agar plates and incubated at 30° C. for 48 hours. A single colony from each strain to be tested was inoculated into YPD broth and grown for 12 hours, at 30° C., shaking at 225 rpm. For the fungal biofilm inhibition assay, 1 μl of saturated overnight cell culture was added to either 80 μL of RPMI-1640 or RPMI-1640 supplemented with the amino acid compound solution to be tested, in a 384-well plate. […] Media was carefully aspirated and the biofilm was measured by optical density at 600 nm. […] Media was carefully aspirated and the biofilm was measured by optical density at 600 nm. […]
(§8) Bacterial strains were streaked on Blood Agar plates (5% sheep blood in Tryptic Soy Agar) and incubated at 37° C. for 24 hours. […] Media was carefully aspirated and the biofilm was measured by optical density at 600 nm. […]

[6] = tested on: bacteria (S. aureus) biofilm and fungal (C. albicans) biofilm; assay: Sustained inhibition biofilm assay, bacterial and fungal taken together; format: cell-based
Method: as §1, §2, §7, §8

S. aureus [7] = assay: Sustained inhibition biofilm assay, bacterial; format: cell-based, Staphylococcus aureus
Method: as §1, with “J. (2017) Assessment and optimizations of Candida albicans in vitro biofilm assays.” left out
as §2, with “All” for “For fungal biofilm assays, all solutions were prepared in RPMI 1640 medium. All”
as §6

[8] = Thermal stability in hot aqueous solution; format: physicochemical; conditions: water at about 90° C. to 100° C.
Excerpt: This ingredient is the non-essential amino acid glutamine.

bacterial biofilms = assay: Biofilm assays (sustained inhibition and/or disruption), bacterial biofilms; format: cell-based; conditions: in at least one of the two biofilm assays
Method: as §1, §2, §3, §6

[9] = sustained inhibition assay, C. albicans, 1% amino acid (unless specifically noted), p≤0.001
[10] = disruption assay, S. aureus, 1% amino acid (unless specifically noted), p≤0.001
[11] = disruption assay, C. albicans, 1% amino acid (unless specifically noted), p≤0.001

Cn1cnc(C[C@H](N)C(=O)O)c1 [1-Methylhistidine, 1-methyl-L-histidine]
Effect on bacterial or fungal biofilms in both assays [1]: neutral

CCC(N)C(=O)O (centres unmarked) [2 Aminobutyric Acid, 2-aminobutyric acid]
Effect on bacterial or fungal biofilms in both assays [1]: neutral

Cn1cncc1C[C@H](N)C(=O)O [3-Methylhistidine, 3-methyl-L-histidine]
Effect on fungal biofilm growth (fungal biofilms): support (improve) fungal biofilm growth
Promote F Biofilm (C. albicans [2]; [9]): ● (a single dot [ie. •] signifies minor effect (from about 10 to about 30% change))
inhibition at 1 % (S. aureus [3]; [10]): 10 to 30%

N[C@@H](CS)C(=O)O [Cysteine, L-cysteine]
Reduce F Biofilm (C. albicans [4]; [11]): ●● (two dots [ie. ••] signifies major effect (greater than about 30% change))
Reduce F Biofilm (C. albicans [2]; [9]): ●● (two dots [ie. ••] signifies major effect (greater than about 30% change))
Reduce Both ([5]; disruption assay, bacterial and fungal biofilm, 1% amino acid (unless specifically noted), p≤0.001): ●● (two dots [ie. ••] signifies major effect (greater than about 30% change))
inhibition at 1 % (S. aureus [3]; [10]): > 30%
Reduce Both ([6]; sustained inhibition assay, bacterial and fungal biofilm, 1% amino acid (unless specifically noted), p≤0.001): ●● (two dots [ie. ••] signifies major effect (greater than about 30% change))
Reduce B Biofilm (S. aureus [7]; sustained inhibition assay, S. aureus, 1% amino acid (unless specifically noted), p≤0.001): ●● (two dots [ie. ••] signifies major effect (greater than about 30% change))

NCCO [Ethanolamine, ethanolamine]
Anti-biofilm effect against fungal biofilms (reduction) (fungal biofilms): less than twofold
Reduce F Biofilm (C. albicans [2]; [9]): ● (a single dot [ie. •] signifies minor effect (from about 10 to about 30% change))

N[C@@H](CCC(=O)O)C(=O)O [Glutamic Acid, L-glutamic acid]
Reduce F Biofilm (C. albicans [4]): ●● (two dots [ie. ••] signifies major effect (greater than about 30% change))
Reduce F Biofilm (C. albicans [2]): ●● (two dots [ie. ••] signifies major effect (greater than about 30% change))
Reduce Both [5]: ●● (two dots [ie. ••] signifies major effect (greater than about 30% change))
inhibition at 1 % (S. aureus [3]): > 30%
Effect on biofilms [1]: very active against biofilms
Reduce Both [6]: ●● (two dots [ie. ••] signifies major effect (greater than about 30% change))
Reduce B Biofilm (S. aureus [7]): ●● (two dots [ie. ••] signifies major effect (greater than about 30% change))

NC(=O)CC[C@H](N)C(=O)O [Glutamine, L-glutamine]
Thermal degradation in aqueous solution [8]: highly susceptible to thermal degradation
Effect on bacterial or fungal biofilms in both assays [1]: neutral

N[C@@H](Cc1c[nH]cn1)C(=O)O [Histidine, L-histidine]
Effect on bacterial or fungal biofilms in both assays [1]: neutral

N[C@@H](CCS)C(=O)O [Homocysteine (0.4%), L-homocysteine]
Anti-biofilm effect against fungal biofilms (reduction) (fungal biofilms): less than twofold

N[C@@H](COP(=O)(O)O)C(=O)O [Phosphoserine, O-phospho-L-serine]
Reduce F Biofilm (C. albicans [4]; [11]): ● (a single dot [ie. •] signifies minor effect (from about 10 to about 30% change))
Anti-biofilm effect against fungal biofilms (reduction) (fungal biofilms): less than twofold
inhibition at 1 % (S. aureus [3]; [10]): 10 to 30%

O=C(O)[C@@H]1CCCN1 [Proline, L-proline]
Reduce F Biofilm (C. albicans [4]; [11]): ● (a single dot [ie. •] signifies minor effect (from about 10 to about 30% change))
Anti-biofilm effect against fungal biofilms (reduction) (fungal biofilms): less than twofold
activation at 1 % (S. aureus [3]; disruption assay, S. aureus, 1% amino acid (unless specifically noted), p≤0.001, read-out: Promote B Biofilm): 10 to 30%
Effect on bacterial biofilm growth (bacterial biofilms): support (improve) bacterial biofilm growth

N[C@@H](Cc1c[nH]c2ccccc12)C(=O)O [Tryptophan, L-tryptophan]
Effect on bacterial or fungal biofilms in both assays [1]: neutral

N[C@@H](Cc1ccc(O)cc1)C(=O)O [Tyrosine, L-tyrosine]
Effect on biofilms [1]: neutral effect on biofilms
Effect on bacterial or fungal biofilms in both assays [1]: neutral

CC(C)[C@H](N)C(=O)O [Valine, L-valine]
Effect on fungal biofilm growth (fungal biofilms): support (improve) fungal biofilm growth
Promote F Biofilm (C. albicans [2]; [9]): ● (a single dot [ie. •] signifies minor effect (from about 10 to about 30% change))
inhibition at 1 % (S. aureus [3]; [10]): 10 to 30%

OCC(O)CO [glycerol]
Effect on biofilms [1]: not found to have antibiofilm effects
